Read-outs that look alike come from different tables or passages of the source. Peptide text beside a SMILES is read from it.
What was measured:
[1] = tested on: spontaneously hypertensive rats (SHRs); test: Tail-cuff systolic blood pressure in spontaneously hypertensive rats; format: in vivo, rat (male SHR); settings: SHR; for Decrease of SBP, intraperitoneal: 1 h after injection
Procedure: Male SHRs (200–250 g, 10 week-old) were purchased from National Laboratory Animal Center (Taipei, Taiwan). Rats were maintained under a 12 h day/12 h night cycle and had free access to water and food. Rat experiments were conducted under ethics approval from China Medical University Animal Care and Use Committee (Permit No. 104-75-N). SHRs with tail SBP ≥ 180 mmHg were randomly divided into five groups with six rats per group. Rats were given intraperitoneally or orally with 400 μL of distilled water (blank), captopril (Catalog No. C4042), or various dosages of CSE or peptide (dissolved in water). SBP was measured by a tail-cuff apparatus (Non-Invasive Blood Pressure System, Panlab, Barcelona, Spain). Rats were placed in a warm holder kept at 37 ± 1 °C for 10 min before the measurement. Changes in SBP were calculated by subtracting SBP at indicated time point from SBP at 0 h.

ACE (serum) [2] = molecular target: T1, ACE (serum) (Mus musculus, UniProt P09470); test: ACE activity assay, H-HL substrate; format: biochemical, mouse (BALB/c serum)
T1 construct: Mouse sera collected from normal BALB/c mice were used as the source of soluble somatic ACE; from tissue; host or cells: serum of normal BALB/c mice
T1 sequence (P09470 35-1237 limits assumed): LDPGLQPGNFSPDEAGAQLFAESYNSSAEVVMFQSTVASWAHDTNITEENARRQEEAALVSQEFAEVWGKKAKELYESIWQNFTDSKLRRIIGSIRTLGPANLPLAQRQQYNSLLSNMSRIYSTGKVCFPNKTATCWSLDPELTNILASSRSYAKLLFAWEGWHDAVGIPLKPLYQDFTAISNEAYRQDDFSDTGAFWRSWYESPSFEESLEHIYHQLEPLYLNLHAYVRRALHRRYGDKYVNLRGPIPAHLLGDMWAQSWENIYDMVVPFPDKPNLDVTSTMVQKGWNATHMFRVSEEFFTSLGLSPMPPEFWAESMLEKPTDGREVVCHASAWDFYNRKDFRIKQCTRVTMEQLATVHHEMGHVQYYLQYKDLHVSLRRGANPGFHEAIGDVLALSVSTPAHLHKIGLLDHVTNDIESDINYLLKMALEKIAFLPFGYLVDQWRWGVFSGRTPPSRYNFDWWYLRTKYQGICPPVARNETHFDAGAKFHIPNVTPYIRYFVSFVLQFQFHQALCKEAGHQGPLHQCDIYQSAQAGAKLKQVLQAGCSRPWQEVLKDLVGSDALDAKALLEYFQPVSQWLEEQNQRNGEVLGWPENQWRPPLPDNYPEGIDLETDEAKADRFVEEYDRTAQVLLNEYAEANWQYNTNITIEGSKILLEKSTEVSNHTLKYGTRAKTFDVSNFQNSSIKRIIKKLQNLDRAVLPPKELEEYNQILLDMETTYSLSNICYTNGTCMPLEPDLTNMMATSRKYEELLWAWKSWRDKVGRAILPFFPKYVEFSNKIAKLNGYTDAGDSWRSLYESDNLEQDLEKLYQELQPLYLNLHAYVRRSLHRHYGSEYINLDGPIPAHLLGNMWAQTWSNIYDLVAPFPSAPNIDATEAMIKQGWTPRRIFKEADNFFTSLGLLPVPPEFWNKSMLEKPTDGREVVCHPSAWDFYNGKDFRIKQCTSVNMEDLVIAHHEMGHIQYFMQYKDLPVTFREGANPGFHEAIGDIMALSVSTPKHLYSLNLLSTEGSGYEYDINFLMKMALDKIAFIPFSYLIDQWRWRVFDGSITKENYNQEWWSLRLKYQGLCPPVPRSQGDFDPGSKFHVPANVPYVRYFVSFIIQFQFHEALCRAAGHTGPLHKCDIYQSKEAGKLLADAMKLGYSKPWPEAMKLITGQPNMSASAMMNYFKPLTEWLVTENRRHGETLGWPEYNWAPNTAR
Procedure: (§1) Various amounts of CSBp5 were mixed with mouse sera in the presence of H-HL or Z-FHL substrate, and the ACE activity was determined by measuring the fluorescence-labeled hydrolyzed substrates.
(§2) ACE activity assay was performed as described previously with a slight modification. Mouse sera collected from normal BALB/c mice were used as the source of soluble somatic ACE. ACE activity in mouse serum was determined as described previously. […] To correct the intrinsic fluorescence of mouse serum, blank was performed according to the aforementioned procedures without inhibitors.

ACE (serum) [3] = molecular target: T1, ACE (serum); test: ACE activity assay, Z-FHL substrate; format: biochemical, mouse (BALB/c serum); settings: various concentrations
Procedure: as §1, §2

SHRs [4] = test: Tail diastolic blood pressure in spontaneously hypertensive rats; format: in vivo, rat (male SHR); settings: SHR, oral, various dosages of CSBp5, 0 and 1 h; n = 6
Procedure: Male SHRs (200–250 g, 10 week-old) were purchased from National Laboratory Animal Center (Taipei, Taiwan). Rats were maintained under a 12 h day/12 h night cycle and had free access to water and food. Rat experiments were conducted under ethics approval from China Medical University Animal Care and Use Committee (Permit No. 104-75-N).
SHRs with tail SBP ≥ 180 mmHg were randomly divided into five groups with six rats per group. Rats were given intraperitoneally or orally with 400 μL of distilled water (blank), captopril (Catalog No. C4042), or various dosages of CSE or peptide (dissolved in water). SBP was measured by a tail-cuff apparatus (Non-Invasive Blood Pressure System, Panlab, Barcelona, Spain). Rats were placed in a warm holder kept at 37 ± 1 °C for 10 min before the measurement. Changes in SBP were calculated by subtracting SBP at indicated time point from SBP at 0 h.
Antihypertensive Effects of Corn Silk Extract and
Its Novel Bioactive Constituent in Spontaneously
Hypertensive Rats: The Involvement of
Angiotensin-Converting Enzyme Inhibition
Chia-Cheng Li 1, Yu-Chen Lee 2,3, Hsin-Yi Lo 1, Yu-Wen Huang 4, Chien-Yun Hsiang 5,* and […]
μmol/kg captopril or various dosages of CSBp5. Tail diastolic blood pressure was measured
at 0 and 1 h. Data are expressed as diastolic blood pressure (mmHg) (top panel) or changes in […]

ACE N-domain = ACE N-domain selective inhibitor; cited from earlier work
Text: Somatic ACE is composed of two similar catalytic domains (N- and C-domains).

[5] = tested on: healthy human subjects and animals; settings: exogenously administered angiotensin I, no reference given; cited from earlier work
Text: CSE was a protein-rich extract and the protein content of CSE was 10.86%. Moreover, the well-known ACE inhibitors are amino acid or dipeptide drugs. Therefore, we proposed that there were bioactive peptides responsible for the anti-hypertensive activities of CSE. Proteomics and bioinformatics analyses were further applied to identify the anti-hypertensive bioactive peptides in CSE. Peptides with anti-hypertensive potentials have been determined from corn. For example, dipeptide Ala-Tyr (AY) has been identified from corn gluten meal, a major byproduct of corn wet milling. AY affects the ACE act ...

ACE = settings: cited from earlier work
Text: (§3) Food peptides with anti-ACE activities have been identified from plants and animals. For example, oligopeptides FDGIP and AIDPVRA are ACE inhibitor derived from Caulerpa lentillifera. […] Peptides from auto-digested reishi (Ganoderma lingzhi) extract show potent inhibition against ACE and hypotensive activities in SHRs. Lacto-tr ... || CSE was a protein-rich extract and the protein content of CSE was 10.86%. Moreover, the well-known ACE inhibitors are amino acid or dipeptide drugs. Therefore, we proposed that there were bioactive peptides responsible for the anti-hypertensive activities of CSE. Proteomics and bioinformatics analyses were further applied to identify the anti-hypertensive bioactive peptides in CSE. Peptides with anti-hypertensive potentials have been determined from corn. For example, dipeptide Ala-Tyr (AY) has been identified from corn gluten meal, a major byproduct of corn wet milling. AY affects the ACE act ...

SHRs [6] = settings: SHR, cited from earlier work
Text: as §3

endothelial function = settings: in vitro; cited from earlier work
Text: (§4) Food peptides with anti-ACE activities have been identified from plants and animals. For example, oligopeptides FDGIP and AIDPVRA are ACE inhibitor derived from Caulerpa lentillifera. […] Peptides from auto-digested reishi (Ganoderma lingzhi) extract show potent inhibition against ACE and hypotensive activities in SHRs. Lacto-tr ...

[7] = tested on: subjects with blood pressure ranging from normal to mild hypertension; settings: intake of tablets containing VPP and IPP; cited from earlier work
Text: as §4

[8] = intraperitoneal, 10 μmol/kg, tail-cuff, mean ± standard error, n = 6

CC(C)C[C@H](NC(=O)[C@H](CC(N)=O)NC(=O)[C@H](CC(=O)O)NC(=O)[C@H](Cc1ccccc1)NC(=O)[C@H](CCCCN)NC(=O)[C@@H](N)CO)C(=O)N[C@@H](Cc1ccc(O)cc1)C(=O)NCC(=O)N[C@@H](CS)C(=O)N[C@@H](CCCNC(=N)N)C(=O)O [CSBp5] (H-SKFDNLYGCR-OH; N-terminus and C-terminus assumed)
Decrease of SBP, intraperitoneal [1, 8]: 28.33 ± 12.5 mmHg | Decrease of SBP, intraperitoneal (in words) ([1]; intraperitoneal, various dosages, 1 h): decreased SBP levels in a dose-dependent manner | Decrease of SBP, oral ([1]; oral, 10 μmol/kg, 1 h, tail-cuff, mean ± standard error, n = 6): 36.78 ± 13.25 mmHg | Decrease of SBP at 2 h (time course) ([1]; oral, 10 μmol/kg): ~30 mmHg | Duration of SBP decrease (in words) ([1]; oral, 10 μmol/kg, measured at 0, 1, 2, 4 and 6 h): persistent during a 6-h measurement | Decrease of SBP, oral (in words) ([1]; oral, various dosages, 1 h): decreased the SBP levels in a dose-dependent manner | Domain preference of ACE inhibition (in words) (ACE (serum) [2]; H-HL versus Z-FHL hydrolysis): a more effective inhibition on the C-domain of ACE | Inhibition of ACE activity, H-HL (in words) (ACE (serum) [2]; mouse serum ACE, H-HL, various concentrations): inhibited the ACE activity and the inhibition displayed a dose-dependent manner | Inhibition of ACE activity, Z-FHL (in words) (ACE (serum) [3]): inhibited the ACE activity and the inhibition displayed a dose-dependent manner | Changes in diastolic blood pressure (in words) (SHRs [4]): consistent with the changes in SBP

CC(=O)N[C@@H](CC(=O)O)C(=O)N[C@@H](Cc1ccccc1)P(=O)(O)C[C@@H](C)C(=O)N[C@@H](C)C(N)=O [RXP407]
Effect on blood pressure (in words) (ACE N-domain): no effect on blood pressure

C[C@H](CS)C(=O)N1CCC[C@H]1C(=O)O [captopril]
Decrease of SBP, intraperitoneal [1, 8]: 52.83±19.06 mmHg | Decrease of SBP at 2 h (time course) ([1]; oral, 10 μmol/kg): approximately 60 mmHg | SBP level lower than that of the blank group ([1]; oral, 10 mg/kg, SBP at 0 and 1 h, tail-cuff, mean ± standard error, n = 6): 47.6 ± 4.34 mmHg | Angiotensin I-induced elevation of blood pressure (in words) [5]: attenuated or abolished

AIDPVRA [oligopeptide derived from Caulerpa lentillifera]
ACE inhibition (in words) (ACE; from Caulerpa lentillifera): ACE inhibitor

Ala-Tyr [AY]
IC50 (ACE; read-out: IC50, ACE): 14.2 µM | Maximal reduction of SBP (SHRs [6]; oral, 50 mg/kg, 2 h): 9.5 mmHg

FDGIP [oligopeptide derived from Caulerpa lentillifera]
ACE inhibition (in words) (ACE; from Caulerpa lentillifera): ACE inhibitor

Ile-Pro-Pro [IPP, lacto-tripeptide from sour milk]
ACE inhibition (in words) (ACE; sour milk peptides): inhibit the ACE activity | Anti-hypertensive effect in SHRs (in words) (SHRs [6]): exhibit anti-hypertensive effects in SHRs | Endothelial function (in words) (endothelial function): protect the endothelial function in vitro | Improvement in hypertension and side effects (in words) [7]: mild improvement in hypertension without side effects

Met-Ile/Leu-Pro-Pro [tetrapeptide from hydrolyzed zein]
IC50, ACE in vitro (ACE): 70.32 µg/mL | IC50 (ACE; read-out: IC50, ACE in vitro): 155 µM

Val-Pro-Pro [VPP, lacto-tripeptide from sour milk]
ACE inhibition (in words) (ACE; sour milk peptides): inhibit the ACE activity | Anti-hypertensive effect in SHRs (in words) (SHRs [6]): exhibit anti-hypertensive effects in SHRs | Endothelial function (in words) (endothelial function): protect the endothelial function in vitro | Improvement in hypertension and side effects (in words) [7]: mild improvement in hypertension without side effects

From publication PMC6572293, “Antihypertensive Effects of Corn Silk Extract and Its Novel Bioactive Constituent in Spontaneously Hypertensive Rats: The Involvement of Angiotensin-Converting Enzyme Inhibition” (Molecules, 2019)
